Assay [1] addresses T1, Axl (Homo sapiens, UniProt P30530).
T1 sequence (P30530 26-894): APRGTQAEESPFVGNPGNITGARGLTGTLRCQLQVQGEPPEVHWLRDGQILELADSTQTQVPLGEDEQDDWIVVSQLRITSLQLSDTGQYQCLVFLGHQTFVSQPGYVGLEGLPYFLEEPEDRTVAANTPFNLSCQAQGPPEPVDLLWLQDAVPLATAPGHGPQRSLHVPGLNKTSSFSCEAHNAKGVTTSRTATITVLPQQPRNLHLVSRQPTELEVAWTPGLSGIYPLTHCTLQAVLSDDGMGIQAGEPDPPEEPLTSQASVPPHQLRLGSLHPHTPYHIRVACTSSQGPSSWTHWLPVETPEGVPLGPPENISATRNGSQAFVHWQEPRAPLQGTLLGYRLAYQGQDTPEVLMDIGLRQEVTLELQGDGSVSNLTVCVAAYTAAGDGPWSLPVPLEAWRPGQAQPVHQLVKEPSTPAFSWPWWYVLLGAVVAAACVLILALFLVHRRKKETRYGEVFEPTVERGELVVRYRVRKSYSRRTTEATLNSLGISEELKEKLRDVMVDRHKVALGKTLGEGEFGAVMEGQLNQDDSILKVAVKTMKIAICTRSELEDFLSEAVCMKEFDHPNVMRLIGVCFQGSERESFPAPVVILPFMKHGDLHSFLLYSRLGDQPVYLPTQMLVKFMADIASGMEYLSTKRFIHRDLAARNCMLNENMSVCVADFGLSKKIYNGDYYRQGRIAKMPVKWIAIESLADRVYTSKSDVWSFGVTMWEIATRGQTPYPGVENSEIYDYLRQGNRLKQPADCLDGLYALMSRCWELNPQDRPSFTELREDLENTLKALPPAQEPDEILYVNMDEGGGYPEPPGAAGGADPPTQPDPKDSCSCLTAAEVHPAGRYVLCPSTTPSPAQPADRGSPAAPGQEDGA
Kind of assay: HTRF KinEASE-TK biochemical potency, AXL. More on the design: purchased Invitrogen. The conditions noted are these: 5 nM AXL, 700 μM ATP. The gist of the method: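 Enzyme preincubated with compound 1 h at RT; final 5 nM AXL or 1 nM TYRO3/MER, 800 nM TK substrate-biotin, 700 μM ATP, HEPES pH 7.4, MgCl2, 1% DMSO, 2 h at RT. HTRF 665/620 ratio read after streptavidin-XL665/cryptate antibody detection; percent activity relative to DMSO and pre-stopped controls.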
(Time-resolved FRET reads energy transfer from a long-lived donor to a nearby acceptor.)

Assay [2] addresses T1, Axl. Nature of the assay: Axl NanoBRET intracellular kinase assay (Cell Binding). More on the design: host or cells: HEK-293. The conditions noted are these: HEK-293 cells transfected with Axl-NanoLuc fusion vector; displacement of K-5 NanoBRET tracer. The gist of the method: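 BRET ratio (610 nm/450 nm) decrease from K-5 tracer displacement gave binding; IC50 by 4-parameter non-linear regression of percent activity. Live HEK-293 cells expressed transiently transfected Axl-NanoLuc. Compound 1 h, then 0.35 μM tracer 2 h, both 37 °C, 5% CO2.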
A general note: In BRET a luciferase serves as donor, and the signal depends on an acceptor being close.

The record followed here is patent publication US20240226115A1, “AXL INHIBITOR COMPOUNDS” (ARCUS BIOSCIENCES, INC., priority 2021, published 2024).

For the compound `CC1(O)CCCCc2cc(-c3n[nH]c4ncc(-c5ccc6c(c5)CCN(C5CCCC5)CC6)cc34)ccc21` (centres unmarked) [Example 27, 2-[5-(3-Cyclopentyl-2,3,4,5-tetrahydro-1H-3-benzazepin-7-yl)-1H-pyrazolo[3,4-b]pyridin-3-yl]-5-methyl-6,7,8,9-tetrahydro-5H-benzo[7]annulen-5-ol], the IC50 (usually the midpoint of a concentration-inhibition curve) against Axl [1] was under 100 nM; on Axl [2] it was 100 to 1000 nM.
On to `CC1(O)CCCOc2cc(-c3n[nH]c4ncc(-c5ccc6c(c5)CCN(C5CCCC5)CC6)cc34)ccc21` (centres unmarked) [Example 28, (8-[5-(3-Cyclopentyl-2,3,4,5-tetrahydro-1H-3-benzazepin-7-yl)-1H-pyrazolo[3,4-b]pyridin-3-yl]-5-methyl-2,3,4,5-tetrahydro-1-benzoxepin-5-ol)], for which the values for the IC50 against Axl [1] and at Axl [2] were under 100 nM and 100 to 1000 nM, respectively.
For `C[C@@H]1CCCN1C1CCc2ccc(-c3cnc4[nH]nc(-c5ccc6c(c5)OCCC6(C)O)c4c3)cc2CC1` (stereo partly drawn) [Example 29, 4-Methyl-7-(5-{7-[(2R)-2-Methylpyrrolidin-1-yl]-6,7,8,9-tetrahydro-5H-benzo[7]annulen-2-yl}-1H-pyrazolo[3,4-b]pyridin-3-yl)-3,4-dihydro-2H-1-benzopyran-4-ol], the concentration for half-maximal inhibition (IC50) against Axl [1] and at Axl [2] was under 100 nM each time.
Consider `CC1(O)CCc2cc(-c3n[nH]c4ncc(-c5ccc6c(c5)CC[C@@H](N5CCCC5)CC6)cc34)ccc21` (stereo partly drawn) [Example 30, 1-Methyl-5-{5-[(7S)-7-(pyrrolidin-1-yl)-6,7,8,9-tetrahydro-5H-benzo[7]annulen-2-yl]-1H-pyrazolo[3,4-b]pyridin-3-yl}-2,3-dihydro-1H-inden-1-ol], for which the 50% inhibitory concentration (IC50) against Axl [1] and on Axl [2] was under 100 nM each time.
Take `CC1(O)CCOc2cc(-c3n[nH]c4ncc(-c5ccc6c(c5)CC[C@@H](N5CCCC5)CC6)cc34)ccc21` (stereo partly drawn) [Example 31, 4-Methyl-7-{5-[(7S)-7-(pyrrolidin-1-yl)-6,7,8,9-tetrahydro-5H-benzo[7]annulen-2-yl]-1H-pyrazolo[3,4-b]pyridin-3-yl}-3,4-dihydro-2H-1-benzopyran-4-ol]: the IC50 against Axl [1] and on Axl [2] was under 100 nM each time.
For `CC1(C)NS(=O)(=O)c2cc(-c3n[nH]c4ncc(-c5ccc6c(c5)CCC(N5CCCC5)CC6)cc34)ccc21` (centres unmarked) [Example 32, 3,3-Dimethyl-6-{5-[7-(pyrrolidin-1-yl)-6,7,8,9-tetrahydro-5H-benzo[7]annulen-2-yl]-1H-pyrazolo[3,4-b]pyridin-3-yl}-2,3-dihydro-1λ^6,2-benzothiazole-1,1-dione], the IC50 on Axl [1] and on Axl [2] was under 100 nM throughout.
On to `C[C@@H]1CCCN1C1CCc2ccc(-c3cnc4[nH]nc(-c5ccc6c(c5)S(=O)(=O)NC6(C)C)c4c3)cc2CC1` (stereo partly drawn) [Example 33, 3,3-Dimethyl-6-(5-{7-[(2R)-2-methylpyrrolidin-1-yl]-6,7,8,9-tetrahydro-5H-benzo[7]annulen-2-yl}-1H-pyrazolo[3,4-b]pyridin-3-yl)-2,3-dihydro-1λ^6,2-benzothiazole-1,1-dione], for which the IC50 on Axl [1] and at Axl [2] was under 100 nM in each case.
For `CC1(C)NS(=O)(=O)c2cc(-c3n[nH]c4ncc(-c5ccc6c(c5)CCC(N5CCC[C@@H]5CO)CC6)cc34)ccc21` (stereo partly drawn) [Example 34, 6-(5-{7-[(2R)-2-(Hydroxymethyl)pyrrolidin-1-yl]-6,7,8,9-tetrahydro-5H-benzo[7]annulen-2-yl}-1H-pyrazolo[3,4-b]pyridin-3-yl)-3,3-dimethyl-2,3-dihydro-1λ^6,2-benzothiazole-1,1-dione], the IC50 at Axl [1] and on Axl [2] was under 100 nM in each case.
As to `CC1(C)COc2cc(-c3n[nH]c4ncc(-c5ccc6c(c5)CCC(N5CCCC5)CC6)cc34)ccc2C(=O)N1` (centres unmarked) [Example 35, 3,3-Dimethyl-8-{5-[7-(pyrrolidin-1-yl)-6,7,8,9-tetrahydro-5H-benzo[7]annulen-2-yl]-1H-pyrazolo[3,4-b]pyridin-3-yl}-2,3,4,5-tetrahydro-1,4-benzoxazepin-5-one], the IC50 on Axl [1] and at Axl [2] was under 100 nM each time.
On to `C[C@@H]1CCCN1C1CCc2ccc(-c3cnc4[nH]nc(-c5ccc6c(c5)OCC5(CC5)NC6=O)c4c3)cc2CC1` (stereo partly drawn) [Example 36, 8-(5-{7-[(2R)-2-Methylpyrrolidin-1-yl]-6,7,8,9-tetrahydro-5H-benzo[7]annulen-2-yl}-1H-pyrazolo[3,4-b]pyridin-3-yl)-4,5-dihydro-2H-spiro[1,4-benzoxazepine-3,1′-cyclopropan]-5-one], for which the half-inhibitory concentration (IC50) on Axl [1] and at Axl [2] was under 100 nM throughout.
Consider `C[C@@H]1CCCN1C1CCc2ccc(-c3cnc4[nH]nc(-c5ccc6c(c5)OCC5(CCC5)NC6=O)c4c3)cc2CC1` (stereo partly drawn) [Example 37, 8-(5-{7-[(2R)-2-Methylpyrrolidin-1-yl]-6,7,8,9-tetrahydro-5H-benzo[7]annulen-2-yl}-1H-pyrazolo[3,4-b]pyridin-3-yl)-4,5-dihydro-2H-spiro[1,4-benzoxazepine-3,1′-cyclobutan]-5-one], for which the IC50 at Axl [1] and at Axl [2] was under 100 nM throughout.
In the case of `C[C@@H]1CCCN1C1CCc2ccc(-c3cnc4[nH]nc(-c5ccc6c(c5)C(=O)NC6(C)C)c4c3)cc2CC1` (stereo partly drawn) [Example 38, 3,3-Dimethyl-6-(5-{7-[(2R)-2-methylpyrrolidin-1-yl]-6,7,8,9-tetrahydro-5H-benzo[7]annulen-2-yl}-1H-pyrazolo[3,4-b]pyridin-3-yl)-2,3-dihydro-1H-isoindol-1-one], the IC50 against Axl [1] and on Axl [2] was under 100 nM in each case.
Consider `C[C@H]1CCCN1C1Cc2ccc(-c3cnc4[nH]nc(-c5ccc6c(c5)OCC(C)(C)NC6=O)c4c3)cc2C1` (stereo partly drawn) [Example 39, 3,3-Dimethyl-8-(5-{2-[(2S)-2-methylpyrrolidin-1-yl]-2,3-dihydro-1H-inden-5-yl}-1H-pyrazolo[3,4-b]pyridin-3-yl)-2,3,4,5-tetrahydro-1,4-benzoxazepin-5-one], for which the IC50 against Axl [1] and on Axl [2] was under 100 nM in each case.
For the compound `Cc1cc2c(cc1-c1n[nH]c3ncc(-c4ccc5c(c4)CCC(N4CCC[C@H]4C)CC5)cc13)OCCNC2=O` (stereo partly drawn) [Example 40, 7-Methyl-8-(5-{7-[(2R)-2-methylpyrrolidin-1-yl]-6,7,8,9-tetrahydro-5H-benzo[7]annulen-2-yl}-1H-pyrazolo[3,4-b]pyridin-3-yl)-2,3,4,5-tetrahydro-1,4-benzoxazepin-5-one], the IC50 against Axl [1] and on Axl [2] was under 100 nM each time.
On to `Cc1c(-c2n[nH]c3ncc(-c4ccc5c(c4)CCC(N4CCC[C@H]4C)CC5)cc23)ccc2c1OCCNC2=O` (stereo partly drawn) [Example 41, 9-Methyl-8-(5-{7-[(2R)-2-methylpyrrolidin-1-yl]-6,7,8,9-tetrahydro-5H-benzo[7]annulen-2-yl}-1H-pyrazolo[3,4-b]pyridin-3-yl)-2,3,4,5-tetrahydro-1,4-benzoxazepin-5-one], for which the IC50 against Axl [1] and on Axl [2] was under 100 nM each time.
Turning to `O=C1NCCOc2cc(-c3n[nH]c4ncc(-c5ccc6c(c5)CCC(NC5CCCC5)CC6)cc34)ccc21` (centres unmarked) [Example 42, 8-{5-[7-(Cyclopentylamino)-6,7,8,9-tetrahydro-5H-benzo[7]annulen-2-yl]-1H-pyrazolo[3,4-b]pyridin-3-yl}-2,3,4,5-tetrahydro-1,4-benzoxazepin-5-one], the IC50 against Axl [1] and at Axl [2] was under 100 nM throughout.
